Experimental findings from article PMC12299463, “Cladolosides of Groups S and T: Triterpene Glycosides from the Sea Cucumber Cladolabes schmeltzii with Unique Sulfation; Human Breast Cancer Cytotoxicity and QSAR” (Marine Drugs, 2025) are described below.

Broadly, the IC50 is the concentration needed to halve the response being measured.

In data set [1] the test system is MCF-7 human breast cancer cells. In words: cells. In kind it is cell-based.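 Also: IC50 values, including those behind the selectivity ratio, derive from formazan absorbance at 570 nm, tested in triplicate.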
Data set [2] concerns MDA-MB-231 triple-negative breast cancer cells. Briefly: cells. Type of data set: cell-based, human. The settings on record: for Selectivity Index (SI), MDA-MB-231: ratio of IC50 for healthy (MCF-10A) and MDA-MB-231 cells.
Data set [3] has as its system MCF-10A non-tumor mammary epithelial cell line. Briefly: in vitro. Type of data set: cell-based, human.
The subject of the next data set is human erythrocytes. Briefly: Hemolytic activity against human erythrocytes. Conditions: for ED50, Erythrocytes (hemolytic activity): 1 h at 37 °C. Type of data set: cell-based. How it is done: A total of 450 g of human blood (B(III) Rh+) was used to obtain erythrocytes by centrifuging three times for 5 min with phosphate-buffered saline (PBS) (pH 7.4) at 4 °C on a centrifuge LABOFUGE 400R (Heraeus, Hanau, Germany). Ice-cold PBS (pH 7.4) was used for resuspension of erythrocyte residue to a final optical density of 1.5 at 700 nm. Then, 20 µL of tested compound solutions or control (cucumarioside A0-1 [15]) were added to 180 µL of erythrocyte suspension in V-bottom 96-well plates and incubated for 1 h at 37 °C. After centrifugation (900 g, 10 min, laboratory centrifuge LMC-3000 (Biosan, Riga, Latvia)), 100 µL of supernatant was transferred into new flat plates. The values of erythrocyte lysis were measured on microplate photometer Multiskan FC (Thermo Fisher Scientific, Waltham, MA, USA) at λ = 570 nm as hemoglobin concentration in supernatant. […] All the experiments were carried out in triple repetitions, p < 0.05.

For data set [4], the system named is T-47D human breast cancer cells. In words: cells. The settings on record: for Selectivity Index (SI), T-47D: ratio of IC50 for healthy (MCF-10A) and T-47D cells. Type of data set: cell-based.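 As to all read-outs here: cell viability read as absorbance of formazan dye at 570 nm, each experiment run in triplicate.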
[5] abbreviates: MTT assay, MCF-7, read-out: Cytotoxicity, IC50, MCF-7.
Setting [6] is: MTT assay, MDA-MB-231, read-out: Cytotoxicity, IC50, MDA-MB-231.
Where [7] appears, read: MTT assay, MCF-10A, read-out: Cytotoxicity, IC50, MCF-10A.
The mark [8] stands for this setting: MTT assay, T-47D, read-out: Cytotoxicity, IC50, T-47D.

Each structure is given as a SMILES string. Read-outs that look alike come from different tables or passages of the source.

Regarding `C=C(C)CCC[C@]1(C)OC(=O)C23CC=C4[C@@H](CC[C@H]5C(C)(C)[C@@H](O[C@@H]6OC[C@@H](O[C@@H]7O[C@H](CO)[C@@H](O)[C@H](O[C@@H]8O[C@H](COS(=O)(=O)[O-])[C@@H](O)[C@H](OC)[C@H]8O)[C@H]7O)[C@H](O)[C@H]6O[C@@H]6O[C@H](C)[C@@H](O[C@@H]7OC[C@@H](O)[C@H](O)[C@H]7O)[C@H](O)[C@H]6O)CC[C@]45C)[C@]2(C)CC(=O)[C@@H]31.[Na+]` (stereo partly shown) [Cladoloside J1 (30), Cladoloside J1], the IC50 is greater than 20 µM in data set [1] (setting [5]), 6.18 ± 0.54 µM in data set [2] (setting [6]), greater than 20 µM in data set [3] (setting [7]) and greater than 20 µM in data set [4] (setting [8]). In data set [2], the “Selectivity Index (SI), MDA-MB-231” value is on record as greater than 3.24. The “ED50, Erythrocytes (hemolytic activity)” value with human erythrocytes came to 1.10 ± 0.10 µM.
`COC1C(O)C(CO)OC(OC2C(O)COC(OC3C(C)OC(OC4C(OC5CCC6(C)C7=CCC89C(=O)OC(C)(CC=CC(C)(C)O)C8C(=O)CC9(C)C7CCC6C5(C)C)OCC(O)C4O)C(O)C3O)C2O)C1O` (stereo not shown) [A5 (9), cladoloside A5]: the IC50 in data set [1] (setting [5]), in data set [2] (setting [6]), in data set [3] (setting [7]) and in data set [4] (setting [8]) was greater than 20 µM in each case. Moreover, the “ED50, Erythrocytes (hemolytic activity)” value in the data set on human erythrocytes was found to be 7.19 ± 0.53 µM; in the data set on human erythrocytes (listed as cladoloside A5 (9)) it was 7.19 µM.
Turning to `CO[C@@H]1[C@@H](O)[C@H](O[C@@H]2[C@@H](O)[C@H](O[C@@H]3CO[C@@H](O[C@H]4CC[C@]5(C)C6=CCC78C(=O)O[C@@](C)([C@@H](CCC(C)C)OC(C)=O)[C@H]7[C@@H](OC(C)=O)C[C@@]8(C)[C@@H]6CC[C@H]5C4(C)C)[C@H](O[C@@H]4O[C@H](C)[C@@H](O[C@@H]5OC[C@@H](O)[C@H](O[C@@H]6O[C@H](COS(=O)(=O)[O-])[C@@H](O)[C@H](OC)[C@H]6O)[C@H]5O)[C@H](O)[C@H]4O)[C@H]3O)O[C@H](CO)[C@H]2O)O[C@H](CO)[C@H]1O.[Na+]` (stereo partly shown) [Cladoloside K1 (31), cladoloside K1], the IC50 in data set [1] (setting [5]) was greater than 20 µM; in data set [2] (setting [6]), 5.83 ± 0.41 µM; in data set [3] (setting [7]), greater than 20 µM; in data set [4] (setting [8]) it was 12.1 ± 1 µM. Besides, the “ED50, Erythrocytes (hemolytic activity)” value with human erythrocytes (listed as K1 (31)) was determined as 0.31 ± 0.02 µM; in the data set on human erythrocytes (listed as cladoloside K1 (31)), 0.31 µM. Besides, in data set [4], the “Selectivity Index (SI), T-47D” value is greater than 1.65.
`C=C(C)CCC[C@]1(C)OC(=O)C23CC=C4[C@@H](CC[C@H]5C(C)(C)[C@@H](O[C@@H]6OC[C@@H](O[C@@H]7O[C@H](CO)[C@@H](O)[C@H](O[C@@H]8O[C@H](COS(=O)(=O)[O-])[C@@H](O)[C@H](OC)[C@H]8O)[C@H]7O)[C@H](O)[C@H]6O[C@@H]6O[C@H](C)[C@@H](O[C@@H]7OC[C@@H](O)[C@H](O[C@@H]8O[C@H](CO)[C@@H](O)[C@H](OC)[C@H]8O)[C@H]7O)[C@H](O)[C@H]6O)CC[C@]45C)[C@]2(C)CC(=O)[C@@H]31.[Na+]` (stereo partly shown) [Cladoloside L1 (33), Cladoloside L1]: the concentration for half-maximal inhibition (IC50) in data set [1] (setting [5]) amounted to 12.7 ± 1.01 µM; in data set [2] (setting [6]), 13.4 ± 1.08 µM; in data set [3] (setting [7]) it was 17.9 ± 1.12 µM; in data set [4] (setting [8]), 9.03 ± 0.81 µM. The “Selectivity Index (SI), MCF-7” value in data set [1] (ratio of IC50 for healthy (MCF-10A) and MCF-7 cells) was 1.41. For the same molecule, in data set [2], the “Selectivity Index (SI), MDA-MB-231” value stood at 1.34. Further, the “Hemolytic (membranolytic) activity, in words” value in the data set on human erythrocytes was “strong hemolytics”. The “ED50, Erythrocytes (hemolytic activity)” value in the data set with human erythrocytes was found to be 0.20 ± 0.02 µM. Also, the “Selectivity Index (SI), T-47D” value in data set [4] is reported as 1.98.
For the molecule `C=C(C)CC[C@@H](OC(C)=O)[C@]1(C)OC(=O)C23CC=C4[C@@H](CC[C@H]5C(C)(C)[C@@H](O[C@@H]6OC[C@@H](O[C@@H]7O[C@H](CO)[C@@H](O)[C@H](O[C@@H]8O[C@H](CO)[C@@H](O)[C@H](OC)[C@H]8O)[C@H]7O)[C@H](O)[C@H]6O[C@@H]6O[C@H](C)[C@@H](O[C@@H]7OC[C@@H](O)[C@H](O[C@@H]8O[C@H](CO)[C@@H](O)[C@H](OC)[C@H]8O)[C@H]7O)[C@H](O)[C@H]6O)CC[C@]45C)[C@]2(C)C[C@H](O)[C@@H]31` (stereo partly shown) [C3 (16), cladoloside C3], the IC50 in data set [1], in data set [2], in data set [3] and in data set [4] was greater than 20 µM in each case. For the same molecule, the “ED50, Erythrocytes (hemolytic activity)” value with human erythrocytes was 12.10 ± 0.58 µM; in the data set with human erythrocytes (listed as cladoloside C3 (16)) it was 12.10 µM.
